Measured values as given in ChEMBL document CHEMBL3112525, “Synthesis and biological evaluation of 4-(1,2,3-triazol-1-yl)coumarin derivatives as potential antitumor agents” (Bioorg Med Chem Lett, 2014).

What follows are compounds tested on A549 (assay: Induction of apoptosis in human A549 cells assessed as late necrotic cells at after 48 hrs by annexin V-FITC and propidium iodide staining-based flow cytometry (reference value: 0.920 %)). Conditions: not given.
Type: functional

Compound | Activity [%]
COc1ccc2c(-n3cc(COc4ccc(F)cc4)nn3)cc(=O)oc2c1 | 12.3

What follows are compounds tested on A549 (assay: Induction of apoptosis in human A549 cells assessed as late apoptotic cells at after 48 hrs by annexin V-FITC and propidium iodide staining-based flow cytometry (reference value: 2.87 %)). Conditions: not given.
Type: functional

Compound | Activity [%]
COc1ccc2c(-n3cc(COc4ccc(F)cc4)nn3)cc(=O)oc2c1 | 15.9

These compounds were tested on A549 (assay: Induction of apoptosis in human A549 cells assessed as viable cells at after 48 hrs by annexin V-FITC and propidium iodide staining-based flow cytometry (reference value: 95.5 %)). Conditions: not given.
Type: functional

Compound | Activity [%]
COc1ccc2c(-n3cc(COc4ccc(F)cc4)nn3)cc(=O)oc2c1 | 52.3

What follows are compounds tested on A549 (assay: Induction of apoptosis in human A549 cells assessed as early apoptotic cells at after 48 hrs by annexin V-FITC and propidium iodide staining-based flow cytometry (reference value: 0.720 %)). Conditions: not given.
Type: functional

Compound | Activity [%]
COc1ccc2c(-n3cc(COc4ccc(F)cc4)nn3)cc(=O)oc2c1 | 19.5

These compounds were tested on MCF7 (assay: Cell cycle arrest in human MCF7 cells assessed as accumulation at G2/M phase at 5 uM after 48 hrs by flow cytometry (Rvb =15.78 %)). Conditions: not given.
Type: functional

Compound | Activity [%]
COc1ccc2c(-n3cc(COc4ccc(F)cc4)nn3)cc(=O)oc2c1 | 84.21

What follows are compounds tested on MCF7 (assay: Cell cycle arrest in human MCF7 cells assessed as accumulation at S phase at 5 uM after 48 hrs by flow cytometry (Rvb =31.40 %)). Conditions: not given.
Type: functional

Compound | Activity [%]
COc1ccc2c(-n3cc(COc4ccc(F)cc4)nn3)cc(=O)oc2c1 | 12.73

The compounds below were run on MCF7 (assay: Cell cycle arrest in human MCF7 cells assessed as accumulation at G1 phase at 5 uM after 48 hrs by flow cytometry (Rvb =52.82 %)). Conditions: not given.
Type: functional

Compound | Activity [%]
COc1ccc2c(-n3cc(COc4ccc(F)cc4)nn3)cc(=O)oc2c1 | 3.06

Each compound was assayed on A549 (assay: Antiproliferative activity against human A549 cells after 48 hrs by MTT assay). Conditions: A549, 48 h.
Type: functional, cell-based

Compound | IC50 [µM]
O=c1cc(N2CCN(Cc3ccc(F)cc3)CC2)c2ccccc2o1 | > 50
O=c1cc(-n2cc(COc3ccccc3Br)nn2)c2cc(Br)ccc2o1 | 8.43
O=c1cc(N2CCN(CCOc3ccc(F)cc3)CC2)c2ccccc2o1 | 11.9
COc1ccc2oc(=O)cc(-n3cc(COc4ccc(F)cc4)nn3)c2c1 | 3.15
O=c1cc(-n2cc(COc3ccccc3)nn2)c2ccc(OS(=O)(=O)c3ccc(F)cc3)cc2o1 | > 50
O=c1cc(N2CCN(Cc3ccccc3O)CC2)c2ccccc2o1 | > 50
O=c1cc(-n2cc(COc3ccc(F)cc3)nn2)c2cc(Br)ccc2o1 | 0.85
O=c1cc(-n2cc(COc3ccc(F)cc3)nn2)c2cc(O)ccc2o1 | 2.01
COC(=O)c1ccc(OCc2cn(-c3cc(=O)oc4ccc(Br)cc34)nn2)cc1 | 0.66
O=c1cc(-n2cc(CNc3ccccc3)nn2)c2cc(Br)ccc2o1 | 13.2
O=c1cc(-n2cc(COc3cccnc3)nn2)c2cc(Br)ccc2o1 | 24.8
O=c1cc(N2CCN(Cc3cccc(O)c3)CC2)c2ccccc2o1 | > 50
O=c1cc(-n2cc(COc3ccccc3O)nn2)c2cc(Br)ccc2o1 | 7.94
O=c1cc(-n2cc(COc3ccccc3)nn2)c2cc(OCCN3CCOCC3)ccc2o1 | > 50
O=c1cc(-n2cc(COc3ccccc3)nn2)c2cc(O)ccc2o1 | > 50
O=c1cc(-n2cc(COc3ccccc3)nn2)c2cc(Br)ccc2o1 | 12.3
O=c1cc(-n2cc(COc3ccnc4ccc(Br)cc34)nn2)c2cc(Br)ccc2o1 | 13.3

Compound | IC50 [µM]
COc1cccc2c1C(=O)c1c(O)c3c(c(O)c1C2=O)C[C@@](O)(C(=O)CO)C[C@@H]3O[C@H]1C[C@H](N)[C@H](O)[C@H](C)O1 [DOXORUBICIN] | 1.65
CCc1ccc(OCc2cn(-c3cc(=O)oc4ccc(Br)cc34)nn2)cc1 | 11.6
COC(=O)c1ccccc1OCc1cn(-c2cc(=O)oc3ccc(Br)cc23)nn1 | 5.25
COc1ccc(CN2CCN(c3cc(=O)oc4ccccc34)CC2)cc1OC | > 50
O=c1cc(-n2cc(COc3ccc(C(F)(F)F)cc3)nn2)c2cc(Br)ccc2o1 | 1.62
COc1ccc2c(-n3cc(COc4ccc(F)cc4)nn3)cc(=O)oc2c1 | 0.52
O=c1cc(-n2cc(CSc3ccccc3)nn2)c2cc(Br)ccc2o1 | 3.51
O=c1cc(-n2cc(-c3ccccc3)nn2)c2cc(Br)ccc2o1 | 11.2
COc1ccc(CN2CCN(c3cc(=O)oc4ccccc34)CC2)cc1 | > 50
O=c1cc(-n2cc(COc3ccc(Br)cc3)nn2)c2cc(Br)ccc2o1 | 24.5
COc1cc(CN2CCN(c3cc(=O)oc4ccccc34)CC2)ccc1O | > 50
Nc1ccc(OCc2cn(-c3cc(=O)oc4ccc(Br)cc34)nn2)cc1 | 11.8
COc1ccc(OCCN2CCN(c3cc(=O)oc4ccccc34)CC2)cc1 | 21.6
O=c1cc(-n2cc(COc3ccc(F)cc3)nn2)c2ccccc2o1 | 0.68
O=c1cc(N2CCN(Cc3ccccc3)CC2)c2ccccc2o1 | > 50
CS(=O)(=O)Oc1ccc2c(-n3cc(COc4ccccc4)nn3)cc(=O)oc2c1 | 9.14

Each compound was assayed on SW480 (assay: Antiproliferative activity against human SW480 cells after 48 hrs by MTT assay). Conditions: SW480, 48 h.
Type: functional, cell-based

Compound | IC50 [µM]
O=c1cc(N2CCN(Cc3ccc(F)cc3)CC2)c2ccccc2o1 | > 50
O=c1cc(-n2cc(COc3ccccc3Br)nn2)c2cc(Br)ccc2o1 | 20.1
O=c1cc(N2CCN(CCOc3ccc(F)cc3)CC2)c2ccccc2o1 | 24
COc1ccc2oc(=O)cc(-n3cc(COc4ccc(F)cc4)nn3)c2c1 | 25.9
O=c1cc(-n2cc(COc3ccccc3)nn2)c2ccc(OS(=O)(=O)c3ccc(F)cc3)cc2o1 | > 50
O=c1cc(N2CCN(Cc3ccccc3O)CC2)c2ccccc2o1 | > 50
O=c1cc(-n2cc(COc3ccc(F)cc3)nn2)c2cc(Br)ccc2o1 | 1.77
O=c1cc(-n2cc(COc3ccc(F)cc3)nn2)c2cc(O)ccc2o1 | 2.72
COC(=O)c1ccc(OCc2cn(-c3cc(=O)oc4ccc(Br)cc34)nn2)cc1 | 3.62
O=c1cc(-n2cc(CNc3ccccc3)nn2)c2cc(Br)ccc2o1 | 18.4
O=c1cc(-n2cc(COc3cccnc3)nn2)c2cc(Br)ccc2o1 | 39.8
O=c1cc(N2CCN(Cc3cccc(O)c3)CC2)c2ccccc2o1 | > 50
O=c1cc(-n2cc(COc3ccccc3O)nn2)c2cc(Br)ccc2o1 | 19.1
O=c1cc(-n2cc(COc3ccccc3)nn2)c2cc(OCCN3CCOCC3)ccc2o1 | > 50
O=c1cc(-n2cc(COc3ccccc3)nn2)c2cc(O)ccc2o1 | > 50
O=c1cc(-n2cc(COc3ccccc3)nn2)c2cc(Br)ccc2o1 | 4.99
O=c1cc(-n2cc(COc3ccnc4ccc(Br)cc34)nn2)c2cc(Br)ccc2o1 | 16.9

Compound | IC50 [µM]
COc1cccc2c1C(=O)c1c(O)c3c(c(O)c1C2=O)C[C@@](O)(C(=O)CO)C[C@@H]3O[C@H]1C[C@H](N)[C@H](O)[C@H](C)O1 [DOXORUBICIN] | 2.43
CCc1ccc(OCc2cn(-c3cc(=O)oc4ccc(Br)cc34)nn2)cc1 | 10.8
COC(=O)c1ccccc1OCc1cn(-c2cc(=O)oc3ccc(Br)cc23)nn1 | 20.2
COc1ccc(CN2CCN(c3cc(=O)oc4ccccc34)CC2)cc1OC | > 50
O=c1cc(-n2cc(COc3ccc(C(F)(F)F)cc3)nn2)c2cc(Br)ccc2o1 | 3.09
COc1ccc2c(-n3cc(COc4ccc(F)cc4)nn3)cc(=O)oc2c1 | 1.99
O=c1cc(-n2cc(CSc3ccccc3)nn2)c2cc(Br)ccc2o1 | 15.4
O=c1cc(-n2cc(-c3ccccc3)nn2)c2cc(Br)ccc2o1 | 6.66
COc1ccc(CN2CCN(c3cc(=O)oc4ccccc34)CC2)cc1 | > 50
O=c1cc(-n2cc(COc3ccc(Br)cc3)nn2)c2cc(Br)ccc2o1 | 1.31
COc1cc(CN2CCN(c3cc(=O)oc4ccccc34)CC2)ccc1O | > 50
Nc1ccc(OCc2cn(-c3cc(=O)oc4ccc(Br)cc34)nn2)cc1 | 2.09
COc1ccc(OCCN2CCN(c3cc(=O)oc4ccccc34)CC2)cc1 | 35
O=c1cc(-n2cc(COc3ccc(F)cc3)nn2)c2ccccc2o1 | 3.82
O=c1cc(N2CCN(Cc3ccccc3)CC2)c2ccccc2o1 | > 50
CS(=O)(=O)Oc1ccc2c(-n3cc(COc4ccccc4)nn3)cc(=O)oc2c1 | 10.7

These compounds were tested on MCF7 (assay: Antiproliferative activity against human MCF7 cells after 48 hrs by MTT assay). Conditions: MCF7, 48 h.
Type: functional, cell-based

Compound | IC50 [µM]
O=c1cc(N2CCN(Cc3ccc(F)cc3)CC2)c2ccccc2o1 | > 50
O=c1cc(-n2cc(COc3ccccc3Br)nn2)c2cc(Br)ccc2o1 | 28.9
O=c1cc(N2CCN(CCOc3ccc(F)cc3)CC2)c2ccccc2o1 | > 50
O=[N+]([O-])c1cnc2ccc(Br)cc2c1-n1cc(CSc2ccccc2)nn1 | 22.7
COc1ccc2oc(=O)cc(-n3cc(COc4ccc(F)cc4)nn3)c2c1 | 8.56
O=c1cc(-n2cc(COc3ccccc3)nn2)c2ccc(OS(=O)(=O)c3ccc(F)cc3)cc2o1 | > 50
O=c1cc(N2CCN(Cc3ccccc3O)CC2)c2ccccc2o1 | > 50
O=c1cc(-n2cc(COc3ccc(F)cc3)nn2)c2cc(Br)ccc2o1 | 7
O=c1cc(-n2cc(COc3ccc(F)cc3)nn2)c2cc(O)ccc2o1 | 4.62
COC(=O)c1ccc(OCc2cn(-c3cc(=O)oc4ccc(Br)cc34)nn2)cc1 | 3.13
O=c1cc(-n2cc(CNc3ccccc3)nn2)c2cc(Br)ccc2o1 | > 50
O=c1cc(-n2cc(COc3cccnc3)nn2)c2cc(Br)ccc2o1 | 39.8
O=c1cc(N2CCN(Cc3cccc(O)c3)CC2)c2ccccc2o1 | > 50
O=c1cc(-n2cc(COc3ccccc3O)nn2)c2cc(Br)ccc2o1 | 24.8
O=c1cc(-n2cc(COc3ccccc3)nn2)c2cc(OCCN3CCOCC3)ccc2o1 | > 50
O=c1cc(-n2cc(COc3ccccc3)nn2)c2cc(O)ccc2o1 | > 50
O=c1cc(-n2cc(COc3ccccc3)nn2)c2cc(Br)ccc2o1 | 1.72
O=c1cc(-n2cc(COc3ccnc4ccc(Br)cc34)nn2)c2cc(Br)ccc2o1 | 41.6

Compound | IC50 [µM]
COc1cccc2c1C(=O)c1c(O)c3c(c(O)c1C2=O)C[C@@](O)(C(=O)CO)C[C@@H]3O[C@H]1C[C@H](N)[C@H](O)[C@H](C)O1 [DOXORUBICIN] | 3.51
CCc1ccc(OCc2cn(-c3cc(=O)oc4ccc(Br)cc34)nn2)cc1 | 12.7
COC(=O)c1ccccc1OCc1cn(-c2cc(=O)oc3ccc(Br)cc23)nn1 | 34.1
COc1ccc(CN2CCN(c3cc(=O)oc4ccccc34)CC2)cc1OC | > 50
O=c1cc(-n2cc(COc3ccc(C(F)(F)F)cc3)nn2)c2cc(Br)ccc2o1 | 11.4
COc1ccc2c(-n3cc(COc4ccc(F)cc4)nn3)cc(=O)oc2c1 | 5.89
O=c1cc(-n2cc(CSc3ccccc3)nn2)c2cc(Br)ccc2o1 | 36.8
O=c1cc(-n2cc(-c3ccccc3)nn2)c2cc(Br)ccc2o1 | 9.45
COc1ccc(CN2CCN(c3cc(=O)oc4ccccc34)CC2)cc1 | > 50
O=c1cc(-n2cc(COc3ccc(Br)cc3)nn2)c2cc(Br)ccc2o1 | 1.92
COc1cc(CN2CCN(c3cc(=O)oc4ccccc34)CC2)ccc1O | > 50
Nc1ccc(OCc2cn(-c3cc(=O)oc4ccc(Br)cc34)nn2)cc1 | 2.04
COc1ccc(OCCN2CCN(c3cc(=O)oc4ccccc34)CC2)cc1 | 24.2
O=[N+]([O-])c1cnc2ccc(Br)cc2c1-n1cc(COc2ccccc2)nn1 | 7.69
CCOC(=O)c1ccc(OCc2cn(-c3c([N+](=O)[O-])cnc4ccc(Br)cc34)nn2)cc1 | 13.9
O=c1cc(-n2cc(COc3ccc(F)cc3)nn2)c2ccccc2o1 | 5.84
O=c1cc(N2CCN(Cc3ccccc3)CC2)c2ccccc2o1 | > 50
CS(=O)(=O)Oc1ccc2c(-n3cc(COc4ccccc4)nn3)cc(=O)oc2c1 | 45.8
